Data from ChEMBL document CHEMBL4371025, “Discovery and evaluation of novel FAAH inhibitors in neuropathic pain model” (Bioorg Med Chem Lett, 2019).

Tests used:
Cytochrome P450 1A2 = target: T1, Cytochrome P450 1A2 (Homo sapiens, UniProt P05177); assay: Inhibition of CYP1A2 in human liver microsomes using phenacetin as substrate preincubated for 5 mins followed by NADPH cofactor addition and measured after 10 mins by LC-MS/MS analysis; assay type: ADME
T1 sequence (P05177 whole entry): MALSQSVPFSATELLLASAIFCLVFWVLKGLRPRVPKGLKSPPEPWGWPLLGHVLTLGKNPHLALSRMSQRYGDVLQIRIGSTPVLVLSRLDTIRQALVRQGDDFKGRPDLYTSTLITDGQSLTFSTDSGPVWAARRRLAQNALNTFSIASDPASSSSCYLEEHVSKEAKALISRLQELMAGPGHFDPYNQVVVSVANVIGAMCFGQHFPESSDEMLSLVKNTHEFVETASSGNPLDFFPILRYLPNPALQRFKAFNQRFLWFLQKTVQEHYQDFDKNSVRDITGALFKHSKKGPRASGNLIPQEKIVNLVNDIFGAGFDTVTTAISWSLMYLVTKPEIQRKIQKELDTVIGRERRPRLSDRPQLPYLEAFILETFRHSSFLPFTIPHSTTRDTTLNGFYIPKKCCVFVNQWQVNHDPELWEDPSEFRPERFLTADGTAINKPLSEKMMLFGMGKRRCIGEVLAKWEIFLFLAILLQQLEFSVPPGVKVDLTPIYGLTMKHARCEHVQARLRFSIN

[1] = Drug level in liver of Sprague-Dawley rat at 10 mg/kg, po administered as single dose via gavage measured at 48 hrs by LC-MS/MS analysis; assay type: ADME, organism-based; conditions: read-out: Drug uptake
[2] = Clearance in Sprague-Dawley rat at 3 mg/kg, iv administered as single dose by LC-MS/MS analysis; assay type: ADME, organism-based; conditions: in vivo
[3] = Drug level in brain of Sprague-Dawley rat at 10 mg/kg, po administered as single dose via gavage measured at 8 hrs by LC-MS/MS analysis; assay type: ADME, organism-based; conditions: read-out: Drug uptake
Cytochrome P450 2C19 = Cytochrome P450 2C19 (Homo sapiens, UniProt P33261); assay: Inhibition of CYP2C19 in human liver microsomes using (S)-mephenytoin as substrate preincubated for 5 mins followed by NADPH cofactor addition and measured after 40 mins by LC-MS/MS analysis; assay type: ADME
Cytochrome P450 2C19, sequence (P33261 whole entry): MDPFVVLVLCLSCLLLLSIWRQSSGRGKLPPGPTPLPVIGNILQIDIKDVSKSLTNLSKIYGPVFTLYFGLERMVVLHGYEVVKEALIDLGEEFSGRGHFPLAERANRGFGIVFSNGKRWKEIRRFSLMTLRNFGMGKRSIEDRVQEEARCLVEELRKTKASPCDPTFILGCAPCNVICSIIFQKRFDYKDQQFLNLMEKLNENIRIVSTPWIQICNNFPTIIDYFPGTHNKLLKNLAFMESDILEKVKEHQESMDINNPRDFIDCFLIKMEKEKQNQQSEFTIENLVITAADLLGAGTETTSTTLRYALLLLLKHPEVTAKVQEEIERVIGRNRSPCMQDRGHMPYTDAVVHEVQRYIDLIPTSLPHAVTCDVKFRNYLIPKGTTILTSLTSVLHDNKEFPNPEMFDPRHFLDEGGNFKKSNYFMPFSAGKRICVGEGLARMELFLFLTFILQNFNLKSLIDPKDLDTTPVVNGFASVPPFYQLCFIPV

[4] = Drug level in brain of Sprague-Dawley rat at 10 mg/kg, po administered as single dose via gavage measured at 32 hrs by LC-MS/MS analysis; assay type: ADME, organism-based; conditions: read-out: Drug uptake
Cytochrome P450 3A4 [5] = target: T2, Cytochrome P450 3A4 (Homo sapiens, UniProt P08684); assay: Inhibition of CYP3A4 in human liver microsomes using testosterone as substrate preincubated for 5 mins followed by NADPH cofactor addition and measured after 10 mins by LC-MS/MS analysis; assay type: ADME
T2 sequence (P08684 whole entry): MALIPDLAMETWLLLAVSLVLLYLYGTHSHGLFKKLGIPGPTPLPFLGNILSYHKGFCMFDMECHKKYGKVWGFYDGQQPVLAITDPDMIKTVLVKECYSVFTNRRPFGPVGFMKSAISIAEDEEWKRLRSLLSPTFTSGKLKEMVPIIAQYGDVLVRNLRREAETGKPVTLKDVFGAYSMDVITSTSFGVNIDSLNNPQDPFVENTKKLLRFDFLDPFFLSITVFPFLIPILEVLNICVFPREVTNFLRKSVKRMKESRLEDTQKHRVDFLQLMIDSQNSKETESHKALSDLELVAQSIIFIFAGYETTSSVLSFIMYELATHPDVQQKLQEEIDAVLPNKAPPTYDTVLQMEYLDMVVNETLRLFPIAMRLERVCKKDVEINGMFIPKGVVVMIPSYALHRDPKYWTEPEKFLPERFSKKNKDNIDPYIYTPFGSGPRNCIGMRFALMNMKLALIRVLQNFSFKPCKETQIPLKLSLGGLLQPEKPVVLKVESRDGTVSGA

[6] = Cmax in Sprague-Dawley rat at 10 mg/kg, po administered as single dose via gavage by LC-MS/MS analysis; assay type: ADME, organism-based; set-up: dose 10 mg/kg, route oral; conditions: in vivo
[7] = AUC (0 to 48 hrs) in liver of Sprague-Dawley rat at 10 mg/kg, po administered as single dose via gavage by LC-MS/MS analysis; assay type: ADME, organism-based; set-up: time < 48 hr, dose 10 mg/kg, route oral
[8] = Ratio of AUC (0 to 48 hrs) in liver to plasma of Sprague-Dawley rat at 10 mg/kg, po administered as single dose via gavage by LC-MS/MS analysis; assay type: ADME, organism-based; conditions: liver and plasma, read-out: Ratio AUC
[9] = Drug level in plasma of Sprague-Dawley rat at 10 mg/kg, po administered as single dose via gavage measured at 8 hrs by LC-MS/MS analysis; assay type: ADME, organism-based
[10] = Drug level in liver of Sprague-Dawley rat at 10 mg/kg, po administered as single dose via gavage measured at 24 hrs by LC-MS/MS analysis; assay type: ADME, organism-based; conditions: read-out: Drug uptake
[11] = Drug level in liver of Sprague-Dawley rat at 10 mg/kg, po administered as single dose via gavage measured at 2 hrs by LC-MS/MS analysis; assay type: ADME, organism-based; conditions: read-out: Drug uptake
[12] = Intrinsic metabolic stability in rat liver microsomes assessed as metabolic turnover over per mg protein at 1 uM preincubated for 5 mins followed by NADPH cofactor addition and measured after 30 mins by LC-MS/MS analysis; assay type: ADME, Microsome; conditions: 0.5 h
[13] = target: T3, Fatty-acid amide hydrolase 1 (Rattus norvegicus, UniProt P97612); assay: Inhibition of rat FFAH expressed in Escherichia coli using AAMCA as substrate incubated for 1 min measured for 50 mins by fluorescence assay
T3 sequence (P97612 whole entry): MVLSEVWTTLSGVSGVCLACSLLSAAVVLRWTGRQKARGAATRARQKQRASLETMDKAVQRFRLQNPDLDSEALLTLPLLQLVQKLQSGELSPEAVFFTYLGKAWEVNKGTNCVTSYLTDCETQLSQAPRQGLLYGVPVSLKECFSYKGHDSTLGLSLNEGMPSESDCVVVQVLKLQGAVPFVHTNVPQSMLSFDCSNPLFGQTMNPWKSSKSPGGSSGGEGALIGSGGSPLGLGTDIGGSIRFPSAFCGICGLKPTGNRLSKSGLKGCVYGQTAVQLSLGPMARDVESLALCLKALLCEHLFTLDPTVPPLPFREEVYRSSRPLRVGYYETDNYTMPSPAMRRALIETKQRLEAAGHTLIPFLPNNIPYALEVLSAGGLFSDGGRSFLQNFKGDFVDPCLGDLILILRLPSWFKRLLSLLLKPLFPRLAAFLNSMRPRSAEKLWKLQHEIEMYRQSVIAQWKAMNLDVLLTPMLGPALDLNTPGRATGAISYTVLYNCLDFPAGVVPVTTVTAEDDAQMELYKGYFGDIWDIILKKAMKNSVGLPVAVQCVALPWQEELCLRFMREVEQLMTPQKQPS

[14] = Drug level in plasma of Sprague-Dawley rat at 10 mg/kg, po administered as single dose via gavage measured at 24 hrs by LC-MS/MS analysis; assay type: ADME, organism-based
[15] = AUC (0 to 48 hrs) in plasma of Sprague-Dawley rat at 10 mg/kg, po administered as single dose via gavage by LC-MS/MS analysis; assay type: ADME, organism-based; set-up: time < 48 hr, dose 10 mg/kg, route oral
Cytochrome P450 3A4 [16] = target: T2, Cytochrome P450 3A4; assay: Inhibition of CYP3A4 in human liver microsomes using midazolam as substrate preincubated for 5 mins followed by NADPH cofactor addition and measured after 10 mins by LC-MS/MS analysis; assay type: ADME
[17] = Drug level in plasma of Sprague-Dawley rat at 10 mg/kg, po administered as single dose via gavage measured at 4 hrs by LC-MS/MS analysis; assay type: ADME, organism-based
Cytochrome P450 2C9 = Cytochrome P450 2C9 (Homo sapiens, UniProt P11712); assay: Inhibition of CYP2C9 in human liver microsomes using diclofenac as substrate preincubated for 5 mins followed by NADPH cofactor addition and measured after 10 mins by LC-MS/MS analysis; assay type: ADME
Cytochrome P450 2C9, sequence (P11712 whole entry): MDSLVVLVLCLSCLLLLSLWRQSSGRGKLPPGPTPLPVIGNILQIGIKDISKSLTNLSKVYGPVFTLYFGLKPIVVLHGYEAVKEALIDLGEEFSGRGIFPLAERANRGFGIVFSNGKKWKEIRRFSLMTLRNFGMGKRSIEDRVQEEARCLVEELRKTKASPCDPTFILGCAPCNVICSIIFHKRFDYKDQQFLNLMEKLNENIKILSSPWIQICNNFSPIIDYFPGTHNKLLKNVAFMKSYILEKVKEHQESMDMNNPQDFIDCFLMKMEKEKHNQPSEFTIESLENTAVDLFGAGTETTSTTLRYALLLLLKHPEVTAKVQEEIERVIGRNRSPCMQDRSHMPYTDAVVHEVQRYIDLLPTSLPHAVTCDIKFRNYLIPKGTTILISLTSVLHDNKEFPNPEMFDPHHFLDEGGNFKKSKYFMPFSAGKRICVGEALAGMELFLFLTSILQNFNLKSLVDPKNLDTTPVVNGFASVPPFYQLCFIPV

[18] = Clearance in Sprague-Dawley rat at 3 mg/kg, iv or 10 mg/kg, po administered as single dose via gavage by LC-MS/MS analysis; assay type: ADME, organism-based; conditions: in vivo
[19] = Drug level in plasma of Sprague-Dawley rat at 10 mg/kg, po administered as single dose via gavage measured at 2 hrs by LC-MS/MS analysis; assay type: ADME, organism-based
[20] = Drug level in liver of Sprague-Dawley rat at 10 mg/kg, po administered as single dose via gavage measured at 8 hrs by LC-MS/MS analysis; assay type: ADME, organism-based; conditions: read-out: Drug uptake

Compound | IC50 (Cytochrome P450 1A2) [µM] | concentration at 48 h [1] [µM] | clearance [2] [mL/min/kg] | concentration at 8 h [3] [µM] | IC50 (Cytochrome P450 2C19) [µM] | IC50 (Cytochrome P450 3A4 [5]) [µM] | Cmax [6] [µM] | AUC(0-t) at 48 h [7] [µM·h] | Kp [8] | concentration at 8 h [9] [µM] | concentration at 24 h [10] [µM] | concentration at 2 h [11] [µM] | concentration at 24 h [14] [µM] | AUC(0-t) at 48 h [15] [µM·h] | IC50 (Cytochrome P450 3A4 [16]) [µM] | concentration at 4 h [17] [µM] | IC50 (Cytochrome P450 2C9) [µM] | clearance [18] [mL/min/kg] | concentration at 2 h [19] [µM] | concentration at 8 h [20] [µM] | other results
Nc1ncc(C(=O)N[C@H]2CC/C(=C\c3cccc(Oc4ccc(C(F)(F)F)cn4)c3)CC2)cn1 (stereo not drawn) | > 12.5 | 8.9 | 0.6 | 7.2 | > 12.5 | > 12.5 | 7.8 | 1020 | 4.3 | 7.3 | 23 | 31 | 7 | 237 | > 12.5 | 7.8 | 6.5 | 0.6 | 7.2 | 34 | concentration at 32 h [4]: 2.3 µM; Drug metabolism [12]: ≤ 0.04 nmol/min/mg; IC50 [13]: 0.0062 µM
O=C(N[C@H]1CC/C(=C\c2cccc(Oc3ccc(C(F)(F)F)cn3)c2)CC1)c1cccnc1 (stereo not drawn) | > 10 | – | 2.4 | 4.7 | 4.6 | 0.4 | 7.2 | 580 | 10.5 | 3 | 7.7 | 52 | 0.5 | 55 | 2.4 | 3.3 | 2.7 | 2.4 | 7.2 | 32 | Drug metabolism [12]: < 0.04 nmol/min/mg
Nc1ccc(C(=O)N[C@H]2CC/C(=C\c3cccc(Oc4ccc(C(F)(F)F)cn4)c3)CC2)cn1 (stereo not drawn) | > 12.5 | 16.2 | 0.7 | 5.2 | 9.1 | > 12.5 | 8.8 | 1950 | 9.2 | 8.2 | 33 | 72.6 | 4.4 | 212 | > 12.5 | 8.6 | 3.4 | 0.7 | 8.8 | 74.9 | concentration at 32 h [4]: 1.9 µM; IC50 [13]: 0.0116 µM
Cc1cc(C(=O)N[C@H]2CC/C(=C\c3cccc(Oc4ccc(C(F)(F)F)cn4)c3)CC2)cnc1N (stereo not drawn) | > 12.5 | 9.1 | 0.8 | 3.2 | > 12.5 | > 12.5 | 6.7 | 1130 | 6.9 | 5.3 | 22 | 41 | 3.3 | 166 | > 12.5 | 4.8 | 9.2 | 0.8 | 6.7 | 37 | concentration at 32 h [4]: 1.2 µM; Drug metabolism [12]: 0.04 to 0.09 nmol/min/mg; IC50 [13]: 0.0092 µM
